Test results as given in patent US10815230B2, “Casein kinase 1 delta inhibitor” (ELECTROPHORETICS LIMITED, priority 2015, dated 2020).

What was measured:
Assay in all cases: KINOMEscan binding assay
Conditions in all cases: read-out: % Ctrl @ 10000 nM
[1] = target: ABL1 (Q252H) non-phosphorylated (Homo sapiens, UniProt P00519, Q252H)
[2] = target: ACVR1B (Homo sapiens, UniProt P36896)
[3] = target: ACVR2A (Homo sapiens, UniProt P27037)
[4] = target: ALK (Homo sapiens, UniProt Q9UM73)
[5] = target: BMPR1B (Homo sapiens, UniProt O00238)
[6] = target: BRAF (V600E) (Homo sapiens, UniProt P15056, V600E)
[7] = target: CDK2 (Homo sapiens, UniProt P24941)
[8] = target: CDK5 (Homo sapiens, UniProt Q00535)
[9] = target: CHEK2 (Homo sapiens, UniProt O96017)
[10] = target: DYRK1A (Homo sapiens, UniProt Q13627)
[11] = target: DYRK2 (Homo sapiens, UniProt Q92630)
[12] = target: EGFR (L747-T751del, Sins) (Homo sapiens, UniProt P00533, DEL747-750/T751S)
[13] = target: EPHA2 (Homo sapiens, UniProt P29317)
[14] = target: EPHA7 (Homo sapiens, UniProt Q15375)
[15] = target: EPHA8 (Homo sapiens, UniProt P29322)
[16] = target: EPHB2 (Homo sapiens, UniProt P29323)
[17] = target: ERK8 (Homo sapiens, UniProt Q8TD08)
[18] = target: FGFR3 (G697C) (Homo sapiens, UniProt P22607, G697C)
[19] = target: FLT3 (Homo sapiens, UniProt P36888)
[20] = target: FLT3 (K663Q) (Homo sapiens, UniProt P36888, K663Q)
[21] = target: KIT (V559D) (Homo sapiens, UniProt P10721, V559D)
[22] = target: LRRK2 (Homo sapiens, UniProt Q5S007)
[23] = target: LYN (Homo sapiens, UniProt P07948)
[24] = target: MAP3K3 (Homo sapiens, UniProt Q99759)
[25] = target: MEK2 (Homo sapiens, UniProt P36507)
[26] = target: MELK (Homo sapiens, UniProt Q14680)
[27] = target: MUSK (Homo sapiens, UniProt O15146)
[28] = target: p38-beta (Homo sapiens, UniProt Q15759)
[29] = target: PDPK1 (Homo sapiens, UniProt O15530)
[30] = target: PIP5K2B (Homo sapiens, UniProt P78356)
[31] = target: PLK4 (Homo sapiens, UniProt O00444)
[32] = target: PRP4 (Homo sapiens, UniProt Q13523)
[33] = target: PYK2 (Homo sapiens, UniProt Q14289)
[34] = target: RET (V804L) (Homo sapiens, UniProt P07949, V804L)
[35] = target: ROS1 (Homo sapiens, UniProt P08922)
[36] = target: TAOK3 (Homo sapiens, UniProt Q9H2K8)
[37] = target: TLK1 (Homo sapiens, UniProt Q9UKI8)
[38] = target: TRKB (Homo sapiens, UniProt Q16620)
[39] = target: TXK (Homo sapiens, UniProt P42681)
[40] = target: T1, VRK2 (Homo sapiens, UniProt Q86Y07)
T1 construct: purchased DiscoveRx (KINOMEscan, LeadHunter Discovery services)

[41] = target: T2, YANK1 (Homo sapiens, UniProt Q8WU08)
T2 construct: purchased DiscoveRx (KINOMEscan, LeadHunter Discovery services)

[42] = target: T3, ZAK (Homo sapiens, UniProt Q9NYL2)
T3 construct: purchased DiscoveRx (KINOMEscan, LeadHunter Discovery services)

ALK, sequence (Q9UM73 19-1620): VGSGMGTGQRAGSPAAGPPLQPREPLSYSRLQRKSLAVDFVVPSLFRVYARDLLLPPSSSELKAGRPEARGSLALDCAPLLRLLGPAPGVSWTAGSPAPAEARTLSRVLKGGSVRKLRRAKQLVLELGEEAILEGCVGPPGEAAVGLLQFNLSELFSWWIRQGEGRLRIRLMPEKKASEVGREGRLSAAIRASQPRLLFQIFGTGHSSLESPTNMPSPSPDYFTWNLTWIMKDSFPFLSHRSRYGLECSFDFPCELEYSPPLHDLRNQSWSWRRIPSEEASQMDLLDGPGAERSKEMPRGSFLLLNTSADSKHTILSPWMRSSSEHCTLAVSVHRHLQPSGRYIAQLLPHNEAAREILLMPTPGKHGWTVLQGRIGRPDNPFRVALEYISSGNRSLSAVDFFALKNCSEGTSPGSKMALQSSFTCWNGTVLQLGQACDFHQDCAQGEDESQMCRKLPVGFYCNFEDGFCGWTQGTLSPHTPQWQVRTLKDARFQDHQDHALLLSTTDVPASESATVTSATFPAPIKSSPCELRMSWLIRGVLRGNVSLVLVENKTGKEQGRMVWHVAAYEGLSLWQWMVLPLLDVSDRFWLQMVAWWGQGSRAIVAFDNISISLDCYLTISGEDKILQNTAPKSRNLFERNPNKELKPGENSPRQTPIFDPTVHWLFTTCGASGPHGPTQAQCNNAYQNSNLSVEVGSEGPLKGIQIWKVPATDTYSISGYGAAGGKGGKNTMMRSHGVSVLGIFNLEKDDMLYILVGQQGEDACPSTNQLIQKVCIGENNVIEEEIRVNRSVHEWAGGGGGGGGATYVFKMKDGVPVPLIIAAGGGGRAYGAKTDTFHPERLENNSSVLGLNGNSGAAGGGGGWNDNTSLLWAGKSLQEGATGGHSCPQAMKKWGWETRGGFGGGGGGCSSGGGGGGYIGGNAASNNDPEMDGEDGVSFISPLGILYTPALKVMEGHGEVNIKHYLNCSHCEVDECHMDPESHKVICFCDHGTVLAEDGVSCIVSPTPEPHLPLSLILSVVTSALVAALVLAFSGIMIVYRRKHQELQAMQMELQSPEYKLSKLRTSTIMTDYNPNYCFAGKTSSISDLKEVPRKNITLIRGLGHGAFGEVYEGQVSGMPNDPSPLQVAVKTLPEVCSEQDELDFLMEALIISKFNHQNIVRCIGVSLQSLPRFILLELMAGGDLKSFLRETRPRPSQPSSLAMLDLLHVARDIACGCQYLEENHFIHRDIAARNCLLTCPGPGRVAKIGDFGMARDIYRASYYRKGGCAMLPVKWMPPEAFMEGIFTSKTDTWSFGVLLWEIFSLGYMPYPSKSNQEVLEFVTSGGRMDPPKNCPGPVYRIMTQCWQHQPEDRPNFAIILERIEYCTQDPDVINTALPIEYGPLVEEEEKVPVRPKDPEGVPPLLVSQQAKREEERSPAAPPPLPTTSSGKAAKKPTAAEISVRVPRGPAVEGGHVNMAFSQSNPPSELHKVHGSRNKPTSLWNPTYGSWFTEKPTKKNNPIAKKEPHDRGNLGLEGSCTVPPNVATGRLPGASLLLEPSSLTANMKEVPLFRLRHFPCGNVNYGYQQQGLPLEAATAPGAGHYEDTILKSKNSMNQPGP
MUSK, sequence (O15146 24-869): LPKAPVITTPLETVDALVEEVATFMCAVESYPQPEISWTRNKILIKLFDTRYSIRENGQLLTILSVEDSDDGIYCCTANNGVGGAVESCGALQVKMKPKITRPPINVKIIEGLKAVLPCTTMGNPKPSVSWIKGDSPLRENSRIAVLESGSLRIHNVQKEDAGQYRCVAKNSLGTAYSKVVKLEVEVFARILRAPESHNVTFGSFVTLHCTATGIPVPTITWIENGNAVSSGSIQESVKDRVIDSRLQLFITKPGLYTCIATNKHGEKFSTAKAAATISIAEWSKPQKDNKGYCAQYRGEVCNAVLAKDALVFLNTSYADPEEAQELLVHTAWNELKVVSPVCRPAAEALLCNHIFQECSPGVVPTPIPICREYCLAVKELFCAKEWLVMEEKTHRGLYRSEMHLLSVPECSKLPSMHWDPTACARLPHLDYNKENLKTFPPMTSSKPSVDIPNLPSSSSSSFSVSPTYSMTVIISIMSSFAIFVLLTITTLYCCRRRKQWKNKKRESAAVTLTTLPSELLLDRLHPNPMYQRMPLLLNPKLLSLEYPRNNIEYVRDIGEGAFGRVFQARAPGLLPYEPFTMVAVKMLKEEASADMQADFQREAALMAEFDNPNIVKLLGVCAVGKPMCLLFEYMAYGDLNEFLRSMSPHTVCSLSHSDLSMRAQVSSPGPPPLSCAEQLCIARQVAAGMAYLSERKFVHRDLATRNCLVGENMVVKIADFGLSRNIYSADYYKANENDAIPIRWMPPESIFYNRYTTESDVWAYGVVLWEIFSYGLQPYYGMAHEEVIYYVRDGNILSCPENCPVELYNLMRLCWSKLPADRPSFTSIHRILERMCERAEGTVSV
PDPK1, sequence (O15530 whole entry): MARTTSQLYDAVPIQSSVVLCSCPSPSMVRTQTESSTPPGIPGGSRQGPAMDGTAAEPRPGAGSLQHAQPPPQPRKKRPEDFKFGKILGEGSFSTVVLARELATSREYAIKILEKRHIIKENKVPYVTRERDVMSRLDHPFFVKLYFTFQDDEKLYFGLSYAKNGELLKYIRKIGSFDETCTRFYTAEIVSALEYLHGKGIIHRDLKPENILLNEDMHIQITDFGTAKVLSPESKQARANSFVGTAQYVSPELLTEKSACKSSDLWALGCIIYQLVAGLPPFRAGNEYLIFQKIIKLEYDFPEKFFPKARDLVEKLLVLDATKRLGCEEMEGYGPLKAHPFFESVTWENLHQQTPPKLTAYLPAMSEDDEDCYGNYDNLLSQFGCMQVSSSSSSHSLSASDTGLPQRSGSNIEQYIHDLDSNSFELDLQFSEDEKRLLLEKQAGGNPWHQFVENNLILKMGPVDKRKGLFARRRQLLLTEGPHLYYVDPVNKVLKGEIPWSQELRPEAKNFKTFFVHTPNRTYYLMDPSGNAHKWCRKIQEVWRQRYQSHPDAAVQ
TLK1, sequence (Q9UKI8 whole entry): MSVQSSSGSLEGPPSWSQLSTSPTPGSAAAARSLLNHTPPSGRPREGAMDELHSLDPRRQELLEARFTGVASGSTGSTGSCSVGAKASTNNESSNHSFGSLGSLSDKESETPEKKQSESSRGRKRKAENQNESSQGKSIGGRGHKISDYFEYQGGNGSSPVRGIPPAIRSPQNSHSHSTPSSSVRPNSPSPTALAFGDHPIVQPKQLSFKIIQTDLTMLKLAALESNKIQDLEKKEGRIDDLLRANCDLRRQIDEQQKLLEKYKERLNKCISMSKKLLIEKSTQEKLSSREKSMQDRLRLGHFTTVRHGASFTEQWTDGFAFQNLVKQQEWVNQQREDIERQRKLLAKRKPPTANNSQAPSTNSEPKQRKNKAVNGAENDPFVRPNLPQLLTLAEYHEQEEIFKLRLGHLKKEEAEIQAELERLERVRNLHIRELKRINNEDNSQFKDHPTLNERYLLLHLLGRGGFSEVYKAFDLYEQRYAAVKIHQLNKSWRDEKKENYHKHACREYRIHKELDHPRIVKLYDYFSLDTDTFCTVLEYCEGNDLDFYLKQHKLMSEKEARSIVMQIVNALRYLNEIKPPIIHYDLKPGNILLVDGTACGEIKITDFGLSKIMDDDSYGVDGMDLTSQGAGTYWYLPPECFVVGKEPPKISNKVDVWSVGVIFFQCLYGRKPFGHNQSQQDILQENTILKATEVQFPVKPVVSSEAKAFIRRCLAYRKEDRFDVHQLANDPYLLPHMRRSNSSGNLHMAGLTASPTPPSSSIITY
EPHA8, sequence (P29322 28-1005): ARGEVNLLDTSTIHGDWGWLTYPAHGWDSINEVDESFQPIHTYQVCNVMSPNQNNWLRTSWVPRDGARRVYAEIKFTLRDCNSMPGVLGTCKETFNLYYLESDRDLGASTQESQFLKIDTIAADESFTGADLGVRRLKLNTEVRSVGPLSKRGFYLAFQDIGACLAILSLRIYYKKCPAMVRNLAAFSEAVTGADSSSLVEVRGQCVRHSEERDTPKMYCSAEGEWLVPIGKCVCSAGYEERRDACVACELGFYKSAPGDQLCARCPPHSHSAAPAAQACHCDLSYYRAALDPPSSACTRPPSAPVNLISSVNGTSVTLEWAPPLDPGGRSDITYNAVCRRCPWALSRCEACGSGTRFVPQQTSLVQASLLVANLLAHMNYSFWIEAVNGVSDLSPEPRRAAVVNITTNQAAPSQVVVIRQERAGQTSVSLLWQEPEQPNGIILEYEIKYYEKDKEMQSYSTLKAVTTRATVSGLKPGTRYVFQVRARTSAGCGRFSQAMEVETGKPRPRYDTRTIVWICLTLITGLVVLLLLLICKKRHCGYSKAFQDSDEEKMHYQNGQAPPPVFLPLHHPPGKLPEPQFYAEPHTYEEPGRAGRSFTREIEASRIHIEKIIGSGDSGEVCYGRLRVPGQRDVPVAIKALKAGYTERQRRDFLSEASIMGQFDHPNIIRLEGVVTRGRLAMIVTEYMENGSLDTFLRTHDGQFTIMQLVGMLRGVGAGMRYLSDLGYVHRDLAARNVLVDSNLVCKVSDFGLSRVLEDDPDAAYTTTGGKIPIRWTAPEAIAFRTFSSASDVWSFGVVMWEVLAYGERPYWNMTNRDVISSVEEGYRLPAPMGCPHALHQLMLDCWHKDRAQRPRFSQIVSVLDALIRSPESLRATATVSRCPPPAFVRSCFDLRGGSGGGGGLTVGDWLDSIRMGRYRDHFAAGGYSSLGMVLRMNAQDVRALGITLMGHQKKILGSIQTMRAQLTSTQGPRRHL
EGFR (L747-T751del, Sins), sequence (P00533 with tags, fused parts or gaps DEL747-750/T751S limits assumed): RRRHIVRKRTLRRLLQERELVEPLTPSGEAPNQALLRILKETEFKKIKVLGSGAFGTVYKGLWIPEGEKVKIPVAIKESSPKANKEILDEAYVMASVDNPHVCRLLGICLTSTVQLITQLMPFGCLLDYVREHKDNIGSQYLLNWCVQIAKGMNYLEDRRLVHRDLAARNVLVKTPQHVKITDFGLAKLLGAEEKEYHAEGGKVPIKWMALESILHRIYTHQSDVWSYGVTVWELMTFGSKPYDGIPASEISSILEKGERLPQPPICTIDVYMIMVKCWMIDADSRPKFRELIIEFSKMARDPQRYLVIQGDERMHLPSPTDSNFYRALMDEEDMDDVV

For `Nc1ncc(-c2nc3ccccc3o2)c(-c2ccncc2)n1` [Comparative Compound 324, 5-(1,3-benzoxazol-2-yl)-4-(pyridine-4-yl)pyrimidin-2-amine], which remaining binding at 10 µM [1] is on record?
The remaining binding at 10 µM was 31%.

And the remaining binding at 10 µM [2]?
The remaining binding at 10 µM was 100%.

What about the remaining binding at 10 µM [3] of the same compound?
The remaining binding at 10 µM was 100%.

What about the remaining binding at 10 µM [4] of the same compound?
Its remaining binding at 10 µM is 89%.

What about the remaining binding at 10 µM [5] of the same compound?
Its remaining binding at 10 µM is 80%.

What about the remaining binding at 10 µM [6] of the same compound?
The remaining binding at 10 µM was 59%.

And the remaining binding at 10 µM [7]?
Its remaining binding at 10 µM is 100%.

What about the remaining binding at 10 µM [8] of the same compound?
The remaining binding at 10 µM was 100%.

And the remaining binding at 10 µM [9]?
The remaining binding at 10 µM was 100%.

And the remaining binding at 10 µM [10]?
The remaining binding at 10 µM was 87%.

And the remaining binding at 10 µM [11]?
Its remaining binding at 10 µM is 82%.

What about the remaining binding at 10 µM [12] of the same compound?
Its remaining binding at 10 µM is 54%.

And the remaining binding at 10 µM [13]?
The remaining binding at 10 µM was 98%.

What about the remaining binding at 10 µM [14] of the same compound?
Its remaining binding at 10 µM is 87%.

And the remaining binding at 10 µM [15]?
The remaining binding at 10 µM was 94%.

What about the remaining binding at 10 µM [16] of the same compound?
The remaining binding at 10 µM was 99%.

What about the remaining binding at 10 µM [17] of the same compound?
Its remaining binding at 10 µM is 99%.

And the remaining binding at 10 µM [18]?
The remaining binding at 10 µM was 76%.

What about the remaining binding at 10 µM [19] of the same compound?
Its remaining binding at 10 µM is 100%.

And the remaining binding at 10 µM [20]?
Its remaining binding at 10 µM is 100%.

And the remaining binding at 10 µM [21]?
Its remaining binding at 10 µM is 69%.

What about the remaining binding at 10 µM [22] of the same compound?
Its remaining binding at 10 µM is 83%.

What about the remaining binding at 10 µM [23] of the same compound?
Its remaining binding at 10 µM is 99%.

What about the remaining binding at 10 µM [24] of the same compound?
Its remaining binding at 10 µM is 76%.

And the remaining binding at 10 µM [25]?
The remaining binding at 10 µM was 82%.

And the remaining binding at 10 µM [26]?
The remaining binding at 10 µM was 80%.

What about the remaining binding at 10 µM [27] of the same compound?
Its remaining binding at 10 µM is 100%.

And the remaining binding at 10 µM [28]?
Its remaining binding at 10 µM is 100%.

What about the remaining binding at 10 µM [29] of the same compound?
Its remaining binding at 10 µM is 100%.

What about the remaining binding at 10 µM [30] of the same compound?
The remaining binding at 10 µM was 100%.

And the remaining binding at 10 µM [31]?
The remaining binding at 10 µM was 69%.

What about the remaining binding at 10 µM [32] of the same compound?
Its remaining binding at 10 µM is 70%.

And the remaining binding at 10 µM [33]?
Its remaining binding at 10 µM is 100%.

And the remaining binding at 10 µM [34]?
Its remaining binding at 10 µM is 86%.

What about the remaining binding at 10 µM [35] of the same compound?
The remaining binding at 10 µM was 100%.

And the remaining binding at 10 µM [36]?
The remaining binding at 10 µM was 91%.

What about the remaining binding at 10 µM [37] of the same compound?
The remaining binding at 10 µM was 96%.

What about the remaining binding at 10 µM [38] of the same compound?
The remaining binding at 10 µM was 67%.

What about the remaining binding at 10 µM [39] of the same compound?
Its remaining binding at 10 µM is 93%.

And the remaining binding at 10 µM [40]?
Its remaining binding at 10 µM is 86%.

What about the remaining binding at 10 µM [41] of the same compound?
Its remaining binding at 10 µM is 66%.

What about the remaining binding at 10 µM [42] of the same compound?
Its remaining binding at 10 µM is 79%.

Which results are given for `CNc1c(C(N)=O)c2ccccn2c1C(=O)c1ccc(F)cc1` [Compound A, 2-methyl-amino-3-[(4-fluorophenyl)carbonyl]indolizine-1-carboxamide]?
remaining binding at 10 µM [1]: 11%; remaining binding at 10 µM [2]: 100%; remaining binding at 10 µM [3]: 98%; remaining binding at 10 µM [4]: 90%; remaining binding at 10 µM [5]: 81%; remaining binding at 10 µM [6]: 86%; remaining binding at 10 µM [7]: 85%; remaining binding at 10 µM [8]: 81%; remaining binding at 10 µM [9]: 100%; remaining binding at 10 µM [10]: 74%; remaining binding at 10 µM [11]: 83%; remaining binding at 10 µM [12]: 12%; remaining binding at 10 µM [13]: 70%; remaining binding at 10 µM [14]: 82%; remaining binding at 10 µM [15]: 59%; remaining binding at 10 µM [16]: 82%; remaining binding at 10 µM [17]: 98%; remaining binding at 10 µM [18]: 71%; remaining binding at 10 µM [19]: 96%; remaining binding at 10 µM [20]: 99%; remaining binding at 10 µM [21]: 19%; remaining binding at 10 µM [22]: 82%; remaining binding at 10 µM [23]: 54%; remaining binding at 10 µM [24]: 48%; remaining binding at 10 µM [25]: 24%; remaining binding at 10 µM [26]: 71%; remaining binding at 10 µM [27]: 96%; remaining binding at 10 µM [28]: 100%; remaining binding at 10 µM [29]: 92%; remaining binding at 10 µM [30]: 100%; remaining binding at 10 µM [31]: 70%; remaining binding at 10 µM [32]: 90%; remaining binding at 10 µM [33]: 100%; remaining binding at 10 µM [34]: 67%; remaining binding at 10 µM [35]: 100%; remaining binding at 10 µM [36]: 93%; remaining binding at 10 µM [37]: 87%; remaining binding at 10 µM [38]: 76%; remaining binding at 10 µM [39]: 45%; remaining binding at 10 µM [40]: 35%; remaining binding at 10 µM [41]: 81%; remaining binding at 10 µM [42]: 92%
